Measured values: patent US10323028B2, “1,3,4-thiadiazole compounds and their use in treating cancer” (AstraZeneca AB, priority 2015, dated 2019)
Where two headings read alike, the source gives them in different places.

How the values were obtained:
[1] = biological target: cellular GLS activity in PC3 cells (Homo sapiens (Human), UniProt O94925); experiment: GLS Cell Potency Assay (PC3 coupled assay measuring cellular glutamate depletion); type: cell-based; settings: PC3 cells, 6 h incubation, glutamate depletion; read-out: Assay b) GLS cell MOA Mean IC50
Description: (§1) The following assays were used to measure the effects of the compounds described herein: a) GLS Enzyme Potency Assay; b) GLS Cell Potency Assay; c) GLS Cell Proliferation Assay. During the description of the assays, generally: • i. The following abbreviations have been used: CO2=Carbon dioxide; DMEM=Dulbecco's Modified Eagle Medium; DMSO=Dimethyl sulphoxide; EDTA=Ethylenediaminetetraacetic acid; EGTA=Ethylene glycol tetraacetic acid; FCS=Foetal calf serum; h=Hour(s); NBS=Non-binding surface; SDS=Sodium dodecyl sulphate; TRIS=Tris(Hydroxymethyl)aminomethane. • ii. IC50 values were calculated using a smart fitting model in Genedata.
Assay b): GLS Cell Potency Assay
Compounds were assessed for their potential to inhibit cellular GLS activity by use of a PC3 coupled assay measuring cellular glutamate depletion. […] DMSO concentration was maintained at 0.3% by back filling with DMSO solution. PC3 cells were grown in phenol free DMEM, 10% dialyzed FCS, 2 mM glutamine and following dispersal by trypsinisation were plated at 5.6×10^3 cells per well in 40 μl of growth medium directly into the 384 well assay plates containing dispensed compound. After incubation for 6 h at 37° C., 5% CO2 growth media was aspirated and cells lysed in 15 μl of buffer containing 10 mM TRIS pH7.4, 100 mM NaCl, 1 mM EDTA, 1 mM EGTA, 1 mM NaF, 20 mM Na4P2O7, 2 mM Na3VO4, 1% Triton X-100, 10% glycerol, 0.1% SDS and 0.5% deoxycholate.

NCI-H1703 cells = experiment: GLS Cell Proliferation Assay (NCI-H1703 cell proliferation); type: cell-based
Description: as §1
Assay c): GLS Cell Proliferation Assay
The ability of compounds to inhibit cell growth was measured using a 384 well plate NCI-H1703 cell proliferation assay. NCI-H1703 cells were grown in phenol red free RPMI1640, 10% FCS and 2 mM glutamine and seeded at a density of 750 cells per well in 40 μl of growth medium into clear-bottom 384 well assay plates (Corning product code 3712) and incubated for 24 h at 37° C., 5% CO2. […] DMSO concentration was maintained at 0.3% by back filling with DMSO solution. Plates were incubated for 5 days at 37° C., 5% CO2, Sytox Green and Saponin added to final concentration of 2 μM and 0.25% respectively and incubated for 6 h prior to analysis. […] IC50 values were calculated by curve fitting to max inhibition of day zero growth using GeneData software analysis.

GLS1 = GLS1 (Homo sapiens (Human), UniProt O94925); experiment: GLS Enzyme Potency Assay (Glutamate Oxidase/AmplexRed coupled assay); type: biochemical; settings: 6His tagged GLS protein (amino acids 63-669), recombinant; read-out: Assay a) enz IC50
Description: as §1
Assay a): GLS Enzyme Potency Assay
A Glutamate Oxidase/AmplexRed coupled assay was used to measure the ability of compounds to bind to and inhibit the activity of GLS1 in vitro. […] GLS1 was diluted to 2× working concentration and incubated at room temperature to allow the tetrameric/dimeric forms to reach steady state. Assay measurements were performed in buffer comprising 50 mM TRIS pH 7.8, 100 mM NaPO4, pH 7.8, 0.001% v/v Tween20. Purified recombinant GLS1 protein was diluted in assay buffer to 12 nM and pre-incubated at room temperature for 30 minutes. […] DMSO concentration was maintained at 2% by back filling with DMSO solution. 3 μL of diluted GLS1 protein (12 nM) was then dispensed into each well using a BioRaptr automated dispenser (Beckman-Coulter) and incubated for 15 minutes at room temperature. 3 μL of 100 mM glutamine diluted in assay buffer was then added and the reaction incubated at room temperature for 60 minutes. […] An artefact version of the assay where the 6His tagged GLS protein and glutamine were replaced with assay buffer was also used to rule out non specific effects on the assay components.

[2] = NCI-H1703 cells, 5 days; read-out: Assay c) Prolif Mean IC50
[3] = Homo sapiens, NCI-H1703, 120 h, NCI-H1703 cells, 5 days; read-out: Assay c) Prolif Mean IC50

Sequence of GLS1 (O94925 63-669): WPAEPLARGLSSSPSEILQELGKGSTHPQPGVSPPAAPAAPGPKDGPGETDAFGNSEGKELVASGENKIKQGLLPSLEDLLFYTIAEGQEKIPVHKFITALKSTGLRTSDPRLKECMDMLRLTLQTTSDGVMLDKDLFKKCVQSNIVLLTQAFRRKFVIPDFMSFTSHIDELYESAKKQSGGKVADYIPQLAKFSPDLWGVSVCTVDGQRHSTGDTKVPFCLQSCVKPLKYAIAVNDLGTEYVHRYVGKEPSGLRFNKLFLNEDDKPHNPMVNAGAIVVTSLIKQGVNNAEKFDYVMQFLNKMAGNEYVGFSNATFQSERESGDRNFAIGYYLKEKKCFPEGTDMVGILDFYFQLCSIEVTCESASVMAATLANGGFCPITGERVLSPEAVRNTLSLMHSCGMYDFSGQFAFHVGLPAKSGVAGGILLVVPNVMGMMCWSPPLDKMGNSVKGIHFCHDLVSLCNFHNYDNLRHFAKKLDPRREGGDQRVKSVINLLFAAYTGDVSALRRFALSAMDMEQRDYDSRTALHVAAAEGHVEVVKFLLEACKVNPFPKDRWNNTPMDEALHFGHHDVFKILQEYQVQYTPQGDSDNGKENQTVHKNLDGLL
Sequence of cellular GLS activity in PC3 cells (O94925 73-669): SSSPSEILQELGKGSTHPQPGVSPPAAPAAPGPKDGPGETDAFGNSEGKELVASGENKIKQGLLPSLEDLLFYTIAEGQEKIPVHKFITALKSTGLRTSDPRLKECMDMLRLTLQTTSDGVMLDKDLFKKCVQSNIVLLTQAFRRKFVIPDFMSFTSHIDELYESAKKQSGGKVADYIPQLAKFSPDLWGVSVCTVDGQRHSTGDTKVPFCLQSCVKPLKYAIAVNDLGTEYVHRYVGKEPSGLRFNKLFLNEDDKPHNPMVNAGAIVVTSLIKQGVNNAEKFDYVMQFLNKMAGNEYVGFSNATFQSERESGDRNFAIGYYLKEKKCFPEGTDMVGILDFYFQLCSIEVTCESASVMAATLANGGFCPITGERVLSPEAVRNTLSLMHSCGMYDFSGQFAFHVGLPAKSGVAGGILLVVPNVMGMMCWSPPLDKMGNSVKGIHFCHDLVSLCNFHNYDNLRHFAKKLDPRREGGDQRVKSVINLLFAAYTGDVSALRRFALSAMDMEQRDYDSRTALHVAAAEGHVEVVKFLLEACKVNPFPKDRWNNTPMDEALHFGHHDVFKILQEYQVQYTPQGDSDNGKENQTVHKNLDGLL

Work on COC[C@H](C(=O)Nc1nnc(N[C@@H]2CCN(c3ccc(C)nn3)C2)s1)c1ccccc1 (single isomer, unassigned) [Example 45(a)] yielded an IC50 [1] of 147 nM.

Work on CCO[C@H](C(=O)Nc1nnc(N[C@@H]2CCN(c3cccnn3)C2)s1)c1cccc(OC(F)(F)F)c1 (single isomer, unassigned) [Example 19(a)] yielded an IC50 (NCI-H1703 cells; [2]) of 2.61 nM.

Work on CO[C@H](C(=O)Nc1nnc(N[C@@H]2CCN(c3cccnn3)C2)s1)c1cccc(N2CC(F)(F)C2)c1 (single isomer, unassigned) [Example 2(a)] yielded an IC50 (NCI-H1703 cells; [2]) of 2.5 nM.

CCO[C@H](C(=O)Nc1nnc(N[C@@H]2CCN(c3cccnn3)C2)s1)c1cccc(N2CC(OC)C2)c1 [Example 22(a), (2S)-2-ethoxy-2-[3-(3-methoxyazetidin-1-yl)phenyl]-N-[5-[[(3R)-1-pyridazin-3-ylpyrrolidin-3-yl]amino]-1,3,4-thiadiazol-2-yl]acetamide] gave an IC50 (NCI-H1703 cells; [3]) of 5.35 nM.

COc1cc(OC(F)(F)F)cc([C@H](OC)C(=O)Nc2nnc(N[C@@H]3CCN(c4cccnn4)C3)s2)c1 (single isomer, unassigned) [11(b)] gave an IC50 (NCI-H1703 cells; [2]) of 1.04 nM.

In the case of CO[C@H](C(=O)Nc1nnc(N[C@@H]2CCN(c3nccnn3)C2)s1)c1cccc(N2CC(F)(F)C2)c1 (single isomer, unassigned) [14(b)], the IC50 (GLS1) is reported as 660 nM and the IC50 (NCI-H1703 cells; [2]) is reported as 156 nM.

COC[C@H](C(=O)Nc1nnc(N[C@@H]2CCN(c3cccnn3)C2)s1)c1cccc(OC)c1 (single isomer, unassigned) [Example 5(a)] gave an IC50 (NCI-H1703 cells; [2]) of 11.7 nM.

Work on COc1cc(OC(F)(F)F)cc([C@H](OC)C(=O)Nc2nnc(N[C@@H]3CCN(c4cccnn4)C3)s2)c1 (single isomer, unassigned) [Example 11(a)] yielded an IC50 (NCI-H1703 cells; [3]) of 1.7 nM.

In the case of COC1CN(c2cccc([C@H](OC)C(=O)Nc3nnc(N[C@@H]4CCN(c5ccc(C)nn5)C4)s3)c2)C1 (single isomer, unassigned) [Example 12(a)], the IC50 (NCI-H1703 cells; [2]) is reported as 32.9 nM.

Compound COc1cc([C@H](OC)C(=O)Nc2nnc(N[C@@H]3CCN(c4cccnn4)C3)s2)cc(N2CC(F)C2)c1 (single isomer, unassigned) [10(b)] has an IC50 (NCI-H1703 cells; [3]) of 43.4 nM.

For CCO[C@H](C(=O)Nc1nnc(N[C@@H]2CCN(c3cccnn3)C2)s1)c1cccc(OC(F)F)c1 (single isomer, unassigned) [17(b)], the IC50 (NCI-H1703 cells; [2]) was 34.9 nM.

COC1CN(c2cccc([C@H](OC)C(=O)Nc3nnc(N[C@@H]4CCN(c5ccc(C)nn5)C4)s3)c2)C1 (single isomer, unassigned) [12(b)] showed an IC50 (NCI-H1703 cells; [2]) of 524 nM.

For CCOC(C(=O)Nc1nnc(N[C@@H]2CCN(c3cccnn3)C2)s1)c1cccc(N2CC(OC)C2)c1 (stereo partly drawn) [Example 33, 2-ethoxy-2-[3-(3-methoxyazetidin-1-yl)phenyl]-N-[5-[[(3R)-1-pyridazin-3-ylpyrrolidin-3-yl]amino]-1,3,4-thiadiazol-2-yl]acetamide], the IC50 (NCI-H1703 cells; [2]) was 5.35 nM.

COC1CN(c2cccc([C@H](OC)C(=O)Nc3nnc(N[C@@H]4CCN(c5nccnn5)C4)s3)c2)C1 (single isomer, unassigned) [13(b)] gave an IC50 (NCI-H1703 cells; [2]) of 497 nM.

CCO[C@H](C(=O)Nc1nnc(N[C@@H]2CCN(c3cccnn3)C2)s1)c1cc(OC)cc(OC)c1 (single isomer, unassigned) [Example 6(a)] was tested, and the IC50 (NCI-H1703 cells; [2]) was 2.2 nM.

With COC1CN(c2cccc([C@H](OC)C(=O)Nc3nnc(N[C@@H]4CCN(c5ccc(F)nn5)C4)s3)c2)C1 (single isomer, unassigned) [Example 9(a)] the IC50 (NCI-H1703 cells; [2]) was 4.9 nM.

Compound COC(C(=O)Nc1nnc(N[C@@H]2CCN(c3ccc(F)nn3)C2)s1)c1cccc(N2CC(F)(F)C2)c1 (stereo partly drawn) [Example 41, 2-[3-(3,3-difluoroazetidin-1-yl)phenyl]-N-[5-[[(3R)-1-(6-fluoropyridazin-3-yl)pyrrolidin-3-yl]amino]-1,3,4-thiadiazol-2-yl]-2-methoxy-acetamide] has an IC50 (NCI-H1703 cells; [2]) of 1.46 nM.

Work on COCC(C(=O)Nc1nnc(N[C@@H]2CCN(c3ccc(C)nn3)C2)s1)c1ccccc1 (single isomer, unassigned) [Example 45(a)] yielded an IC50 (GLS1) of 1600 nM.

COC[C@H](C(=O)Nc1nnc(N[C@@H]2CCN(c3cccnn3)C2)s1)c1cccc(OC)c1 (single isomer, unassigned) [5(b)] was tested, and the IC50 (NCI-H1703 cells; [2]) was 120 nM.

Compound COc1cc(OC)cc([C@H](OC)C(=O)Nc2nnc(N[C@@H]3CCN(c4nccnn4)C3)s2)c1 (single isomer, unassigned) [16(b)] has an IC50 (GLS1) of 689 nM.

With COC1CN(c2cccc([C@H](OC)C(=O)Nc3nnc(N[C@@H]4CCN(c5ccc(F)nn5)C4)s3)c2)C1 (single isomer, unassigned) [9(b)] the IC50 (NCI-H1703 cells; [2]) was 122 nM.

Work on CO[C@H](C(=O)Nc1nnc(N[C@@H]2CCN(c3cccnn3)C2)s1)c1ccc(F)c(OC(F)(F)F)c1 (single isomer, unassigned) [20(b)] yielded an IC50 (NCI-H1703 cells; [2]) of 2.65 nM.

Work on CO[C@H](C(=O)Nc1nnc(N[C@@H]2CCN(c3cccnn3)C2)s1)c1ccc(F)c(OC(F)(F)F)c1 (single isomer, unassigned) [Example 20(a)] yielded an IC50 (NCI-H1703 cells; [2]) of 6.57 nM.

CO[C@H](C(=O)Nc1nnc(N[C@@H]2CCN(c3nccnn3)C2)s1)c1cccc(N2CC(F)C2)c1 (single isomer, unassigned) [15(b)] gave an IC50 (GLS1) of 1310 nM and an IC50 (NCI-H1703 cells; [2]) of 376 nM.

Compound CCO[C@H](C(=O)Nc1nnc(N[C@@H]2CCN(c3cccnn3)C2)s1)c1cccc(OC(F)F)c1 (single isomer, unassigned) [Example 17(a)] has an IC50 (NCI-H1703 cells; [2]) of 1.56 nM.

In the case of CO[C@H](C(=O)Nc1nnc(N[C@@H]2CCN(c3nccnn3)C2)s1)c1cccc(N2CC(F)C2)c1 (single isomer, unassigned) [Example 15(a)], the IC50 (GLS1) is reported as 77.6 nM and the IC50 (NCI-H1703 cells; [2]) is reported as 11.6 nM.

Compound CO[C@H](C(=O)Nc1nnc(N[C@@H]2CCN(c3cccnn3)C2)s1)c1ccc(F)c(N2CC(F)C2)c1 (single isomer, unassigned) [Example 8(a)] has an IC50 (NCI-H1703 cells; [3]) of 57.6 nM.

CO[C@H](C(=O)Nc1nnc(N[C@@H]2CCN(c3cccnn3)C2)s1)c1cccc(N2CC(F)(F)C2)c1 (single isomer, unassigned) [2(b)] was tested, and the IC50 (NCI-H1703 cells; [2]) was 28.6 nM.

Compound CCOC(C(=O)Nc1nnc(N[C@@H]2CCN(c3cccnn3)C2)s1)c1cccc(N2CC(F)C2)c1 (single isomer, unassigned) [Example 32] has an IC50 (GLS1) of 188 nM and an IC50 (NCI-H1703 cells; [2]) of 98.7 nM.

Work on COC1CN(c2cccc([C@H](OC)C(=O)Nc3nnc(N[C@@H]4CCN(c5nccnn5)C4)s3)c2)C1 (single isomer, unassigned) [Example 13(a)] yielded an IC50 (GLS1) of 75.1 nM.

Work on COc1cc(OC)cc([C@H](OC)C(=O)Nc2nnc(N[C@@H]3CCN(c4nccnn4)C3)s2)c1 (single isomer, unassigned) [Example 16(a)] yielded an IC50 (GLS1) of 25.2 nM and an IC50 (NCI-H1703 cells; [3]) of 3.49 nM.

COC(C(=O)Nc1nnc(N[C@@H]2CCN(c3ccc(C)nn3)C2)s1)c1cccc(N2CC(F)(F)C2)c1 (stereo partly drawn) [Example 40, 2-[3-(3,3-difluoroazetidin-1-yl)phenyl]-2-methoxy-N-[5-[[(3R)-1-(6-methylpyridazin-3-yl)pyrrolidin-3-yl]amino]-1,3,4-thiadiazol-2-yl]acetamide] gave an IC50 (GLS1) of 311 nM and an IC50 (NCI-H1703 cells; [2]) of 82.5 nM.

In the case of CO[C@H](C(=O)Nc1nnc(N[C@@H]2CCN(c3nccnn3)C2)s1)c1cccc(N2CC(F)(F)C2)c1 (single isomer, unassigned) [Example 14(a)], the IC50 (GLS1) is reported as 91.5 nM and the IC50 (NCI-H1703 cells; [2]) is reported as 5.89 nM.

Work on CCO[C@H](C(=O)Nc1nnc(N[C@@H]2CCN(c3cccnn3)C2)s1)c1cccc(OC(F)(F)F)c1 (single isomer, unassigned) [19(b)] yielded an IC50 (NCI-H1703 cells; [2]) of 7.59 nM.

COC(C(=O)Nc1nnc(N[C@@H]2CCN(c3cccnn3)C2)s1)c1ccc(F)c(N2CC(F)(F)C2)c1 (stereo partly drawn) [Example 38, 2-[3-(3,3-difluoroazetidin-1-yl)-4-fluoro-phenyl]-2-methoxy-N-[5-[[(3R)-1-pyridazin-3-ylpyrrolidin-3-yl]amino]-1,3,4-thiadiazol-2-yl]acetamide] was tested, and the IC50 (GLS1) was 190 nM and the IC50 (NCI-H1703 cells; [2]) was 303 nM.
